Results published in patent US8592468B2, “Bacterial thioredoxin reductase inhibitors and methods for use thereof” (Thioredoxin Systems AB, priority 2006, dated 2013).
In brackets after ≈: the same amount, converted by molar mass. Like-named read-outs stand apart in the source and are kept apart here.

Assays:
[1] = system: Helicobacter pylori; test: Bactericidal effects of ebselen on Helicobacter pylori (MBC); format: cell-based; parameters: key to Sensitivity to ebselen: S: sensitive; R: resistant
Procedure: The bacteria were cultured in 96-well microtiter plates with a microaerophilic environment at 37° C. for 4 days. The whole amount of the wells was then plated on GC agar plates containing different concentrations of ebselen. Ebselen was diluted in a two-fold series (0.39-200 μg/ml), the minimal bactericidal concentration (MBC) was determined by the first concentration with a total bactericidal effect.

[2] = system: mammalian thioredoxin reductases; test: Inhibition of mammalian thioredoxin reductases; format: biochemical
[3] = system: Staphylococcus aureus; conditions: cited from earlier work
[4] = system: E. coli NHHJ; conditions: strains of Enterobacteriaceae like E. coli NHHJ; cited from earlier work
[5] = system: Gor^- DHB4 E. coli; test: Bacterial inhibition by ebselen derivates, MIC; conditions: Escherichia coli, 4 h, read-out: MIC for Gor^- DHB4 E. coli
Procedure: E. coli DHB4 strains wt, gshA^−, gor^−, oxyR^− were cultured overnight in LB medium. […] OD 600 was detected and DMSO was used as the control. […] The data are the means of two experiments.

Compound: O=c1c2ccccc2[se]n1-c1ccccc1 [EbSe 6, 2-phenyl-1,2-benzisoselenazol-3(2H)-one]
- Sensitivity to ebselen ([1]; strain MR G162, ebselen 0.78 μg/ml): R
- Sensitivity to ebselen ([1]; strain MR G162, ebselen 1.56 μg/ml): R
- Sensitivity to ebselen ([1]; strain MR G162, ebselen 3.125 μg/ml): R
- Sensitivity to ebselen ([1]; strain MR G162, ebselen 6.25 μg/ml): R
- Sensitivity to ebselen ([1]; strain MR G162, ebselen 25 μg/ml): S
- Sensitivity to ebselen ([1]; strain MR G162, ebselen 50 μg/ml): S
- Sensitivity to ebselen ([1]; strain MR G162, ebselen 100 μg/ml): S
- Sensitivity to ebselen ([1]; strain MR G193, ebselen 0.78 μg/ml): R
- Sensitivity to ebselen ([1]; strain MR G193, ebselen 1.56 μg/ml): R
- Sensitivity to ebselen ([1]; strain MR G193, ebselen 3.125 μg/ml): R
- Sensitivity to ebselen ([1]; strain MR G193, ebselen 6.25 μg/ml): R
- Sensitivity to ebselen ([1]; strain MR G193, ebselen 25 μg/ml): S
- Sensitivity to ebselen ([1]; strain MR G193, ebselen 50 μg/ml): S
- Sensitivity to ebselen ([1]; strain MR G193, ebselen 100 μg/ml): S
- Sensitivity to ebselen ([1]; strain MS G6, ebselen 0.78 μg/ml): R
- Sensitivity to ebselen ([1]; strain MS G6, ebselen 1.56 μg/ml): R
- Sensitivity to ebselen ([1]; strain MS G6, ebselen 3.125 μg/ml): S
- Sensitivity to ebselen ([1]; strain MS G6, ebselen 6.25 μg/ml): S
- Sensitivity to ebselen ([1]; strain MS G6, ebselen 25 μg/ml): S
- Sensitivity to ebselen ([1]; strain MS G6, ebselen 50 μg/ml): S
- Sensitivity to ebselen ([1]; strain MS G6, ebselen 100 μg/ml): S
- Sensitivity to ebselen ([1]; strain MS G142, ebselen 0.78 μg/ml): R
- Sensitivity to ebselen ([1]; strain MS G142, ebselen 1.56 μg/ml): R
- Sensitivity to ebselen ([1]; strain MS G142, ebselen 3.125 μg/ml): R
- Sensitivity to ebselen ([1]; strain MS G142, ebselen 6.25 μg/ml): S
- Sensitivity to ebselen ([1]; strain MS G142, ebselen 25 μg/ml): S
- Sensitivity to ebselen ([1]; strain MS G142, ebselen 50 μg/ml): S
- Sensitivity to ebselen ([1]; strain MS G142, ebselen 100 μg/ml): S
- minimal bactericidal concentration (MBC) ([1]; two macrolide sensitive strains, listed as ebselen): 6.25 µg/mL (≈ 22.8 µM)
- inhibitory activity of mammalian thioredoxin reductases [2]: no inhibitory activity
- mode of antibacterial action ([3]; S. aureus strains): bacteriocidal
- concentration inhibiting growth ([3]; Staphylococcus aureus 209P): 0.20 µg/mL
- MIC for 90% of S. aureus strains [3]: 1.56 μg per ml
- sensitivity of S. aureus relative to E. coli [3]: 100 fold
- concentration inhibiting growth ([3]; methicillin resistant Staphylococcus aureus): 0.20 μg per ml
- concentration required to inhibit growth [4]: up to 50 μg per ml
- MIC [5]: 15 µM (≈ 4.11 µg/mL)
